Measured values taken from ChEMBL document CHEMBL5665443, “Enzyme Inhibitor Single Concentration assay results for EUbOPEN Chemogenomics Library” (2024).

Columns and labels:
Settings in all cases: Compound Concentration 10.0 uM, Hit No
[1] = target: DNA-3-methyladenine glycosylase (Homo sapiens) (UniProt P29372);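 further: enzyme assay where MPG cuts a quenched duplex DNA oligonucleotide probe, paired with APE1 for strand incision and turnover, read as fluorescence at 594 nm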
Description: Inhibition of MPG by quantifying inhibition of MPG-mediated cleavage and dissociation of quenched duplex DNA oligonucleotides, measured as fluorescence at 594 nm. To generate a functional strand incision and increase turn-over this assay is coupled to APE1.

[2] = target: T1, Adenine DNA glycosylase (Homo sapiens) (UniProt Q9UIF7);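 further: human MUTYH activity read as 594 nm fluorescence from cleavage and release of a quenched DNA duplex, coupled with APE1 for strand incision, lower signal meaning inhibition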
T1 sequence (whole entry): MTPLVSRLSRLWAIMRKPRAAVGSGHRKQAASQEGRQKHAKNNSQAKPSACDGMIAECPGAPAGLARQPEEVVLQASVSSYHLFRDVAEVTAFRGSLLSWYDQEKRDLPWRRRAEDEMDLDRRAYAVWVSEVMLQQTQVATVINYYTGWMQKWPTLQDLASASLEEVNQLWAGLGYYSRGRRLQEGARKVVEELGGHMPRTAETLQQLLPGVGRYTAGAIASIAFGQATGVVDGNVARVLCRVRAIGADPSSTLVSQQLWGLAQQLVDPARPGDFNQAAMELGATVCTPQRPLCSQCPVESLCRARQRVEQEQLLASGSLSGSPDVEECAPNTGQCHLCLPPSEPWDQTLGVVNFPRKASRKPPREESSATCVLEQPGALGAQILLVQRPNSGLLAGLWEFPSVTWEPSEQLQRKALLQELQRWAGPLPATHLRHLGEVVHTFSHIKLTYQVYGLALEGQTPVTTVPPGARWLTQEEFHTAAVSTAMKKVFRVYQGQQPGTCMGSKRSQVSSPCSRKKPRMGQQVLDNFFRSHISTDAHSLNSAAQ
Description: Inhibition of MUTYH by quantifying inhibition of MUTYH-mediated cleavage and dissociation of quenched duplex DNA oligonucleotides, measured as fluorescence at 594 nm. To generate a functional strand incision and increase turn-over this assay is coupled to APE1.

[3] = target: Endonuclease 8-like 1 (Homo sapiens) (UniProt Q96FI4);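 further: fluorescence at 594 nm from quenched duplex DNA oligonucleotides released by NEIL1 cleavage and strand separation, reported as reduction of this enzyme activity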
Description: Inhibition of NEIL1 by quantifying inhibition of NEIL1-mediated cleavage and dissociation of quenched duplex DNA oligonucleotides, measured as fluorescence at 594 nm.

[4] = target: T2, Endonuclease 8-like 2 (Homo sapiens) (UniProt Q969S2);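 further: fluorescence at 594 nm reports NEIL2 cutting and release of a quenched double-stranded DNA oligo substrate, reduced signal read as inhibition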
T2 sequence (whole entry): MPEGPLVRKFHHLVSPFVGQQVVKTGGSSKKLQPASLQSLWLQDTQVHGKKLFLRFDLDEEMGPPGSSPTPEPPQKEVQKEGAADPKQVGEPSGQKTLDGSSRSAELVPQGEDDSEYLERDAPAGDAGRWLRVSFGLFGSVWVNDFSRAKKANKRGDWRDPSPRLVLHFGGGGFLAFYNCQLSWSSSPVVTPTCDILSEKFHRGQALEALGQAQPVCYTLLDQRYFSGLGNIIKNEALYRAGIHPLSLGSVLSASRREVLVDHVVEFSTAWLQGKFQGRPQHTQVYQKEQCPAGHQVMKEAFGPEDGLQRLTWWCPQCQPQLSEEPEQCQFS
Description: Inhibition of NEIL2 by quantifying inhibition of NEIL2-mediated cleavage and dissociation of quenched duplex DNA oligonucleotides, measured as fluorescence at 594 nm.

[5] = target: T3, Endonuclease III-like protein 1 (Homo sapiens) (UniProt P78549);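 further: enzyme assay tracking NTHL1 cutting and release of a quenched double-stranded DNA oligo substrate, read as fluorescence at 594 nm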
T3 sequence (whole entry): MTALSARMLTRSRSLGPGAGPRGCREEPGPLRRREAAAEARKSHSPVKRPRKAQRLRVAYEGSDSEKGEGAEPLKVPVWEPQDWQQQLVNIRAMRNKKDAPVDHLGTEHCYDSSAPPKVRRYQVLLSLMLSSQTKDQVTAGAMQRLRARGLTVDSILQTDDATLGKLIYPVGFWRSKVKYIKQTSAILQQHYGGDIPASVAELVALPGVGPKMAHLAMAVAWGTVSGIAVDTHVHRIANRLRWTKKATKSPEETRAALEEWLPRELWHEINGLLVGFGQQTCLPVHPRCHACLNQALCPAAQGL
Description: Inhibition of NTHL1 by quantifying inhibition of NTHL1-mediated cleavage and dissociation of quenched duplex DNA oligonucleotides, measured as fluorescence at 594 nm.

[6] = target: N-glycosylase/DNA lyase (Homo sapiens) (UniProt O15527);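 further: OGG1 cleavage of a quenched duplex DNA oligonucleotide, coupled to APE1 for strand incision, read as fluorescence at 594 nm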
Description: Inhibition of OGG1 by quantifying inhibition of OGG1-mediated cleavage and dissociation of quenched duplex DNA oligonucleotides, measured as fluorescence at 594 nm. To generate a functional strand incision and increase turn-over this assay is coupled to APE1.

[7] = target: T4, Single-strand selective monofunctional uracil DNA glycosylase (Homo sapiens) (UniProt Q53HV7);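 further: enzymatic SMUG1 assay coupled with APE1, reading fluorescence at 594 nm released when a quenched double-stranded DNA oligonucleotide substrate is cleaved and separated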
T4 sequence (whole entry): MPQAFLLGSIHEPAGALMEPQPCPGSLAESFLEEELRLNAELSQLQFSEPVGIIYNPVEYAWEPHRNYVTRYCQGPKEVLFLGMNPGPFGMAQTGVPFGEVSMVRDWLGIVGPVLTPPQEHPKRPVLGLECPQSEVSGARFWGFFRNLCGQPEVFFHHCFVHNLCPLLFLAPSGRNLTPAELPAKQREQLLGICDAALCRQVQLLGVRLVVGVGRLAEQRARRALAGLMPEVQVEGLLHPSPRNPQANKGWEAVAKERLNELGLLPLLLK
Description: Inhibition of SMUG1 by quantifying inhibition of SMUG1-mediated cleavage and dissociation of quenched duplex DNA oligonucleotides, measured as fluorescence at 594 nm. To generate a functional strand incision and increase turn-over this assay is coupled to APE1.

[8] = target: G/T mismatch-specific thymine DNA glycosylase (Homo sapiens) (UniProt Q13569);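 further: human TDG cleavage of quenched duplex DNA oligonucleotides coupled to APE1, strand release read as fluorescence at 594 nm, inhibition of TDG activity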
Description: Inhibition of TDG by quantifying inhibition of TDG-mediated cleavage and dissociation of quenched duplex DNA oligonucleotides, measured as fluorescence at 594 nm. To generate a functional strand incision and increase turn-over this assay is coupled to APE1.

[9] = target: Uracil-DNA glycosylase (Homo sapiens) (UniProt P13051);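 further: UNG excision on a quenched double-stranded DNA oligo probe, with APE1 added for strand incision and turnover, read as fluorescence at 594 nm as strands separate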
Sequence of Uracil-DNA glycosylase (Homo sapiens) (P13051 whole entry): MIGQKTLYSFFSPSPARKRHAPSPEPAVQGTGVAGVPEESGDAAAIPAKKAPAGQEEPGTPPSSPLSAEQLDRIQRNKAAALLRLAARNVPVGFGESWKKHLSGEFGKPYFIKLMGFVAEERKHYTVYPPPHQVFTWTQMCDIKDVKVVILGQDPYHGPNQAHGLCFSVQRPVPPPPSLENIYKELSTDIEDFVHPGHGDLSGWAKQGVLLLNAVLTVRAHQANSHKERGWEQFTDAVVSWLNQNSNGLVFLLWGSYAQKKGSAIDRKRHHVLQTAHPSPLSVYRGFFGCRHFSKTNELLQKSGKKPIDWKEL
Description: Inhibition of UNG by quantifying inhibition of UNG-mediated cleavage and dissociation of quenched duplex DNA oligonucleotides, measured as fluorescence at 594 nm. To generate a functional strand incision and increase turn-over this assay is coupled to APE1.

Sequence of N-glycosylase/DNA lyase (Homo sapiens) (O15527 whole entry): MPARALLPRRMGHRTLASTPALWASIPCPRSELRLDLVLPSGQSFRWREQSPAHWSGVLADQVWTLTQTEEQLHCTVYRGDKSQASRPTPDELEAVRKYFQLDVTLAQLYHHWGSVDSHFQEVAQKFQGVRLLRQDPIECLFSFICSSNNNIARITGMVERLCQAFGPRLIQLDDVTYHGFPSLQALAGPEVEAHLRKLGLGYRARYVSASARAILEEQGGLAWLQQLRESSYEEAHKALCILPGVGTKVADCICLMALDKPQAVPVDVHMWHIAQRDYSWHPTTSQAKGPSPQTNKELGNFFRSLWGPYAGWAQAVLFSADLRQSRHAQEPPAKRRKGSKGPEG
Sequence of G/T mismatch-specific thymine DNA glycosylase (Homo sapiens) (Q13569 whole entry): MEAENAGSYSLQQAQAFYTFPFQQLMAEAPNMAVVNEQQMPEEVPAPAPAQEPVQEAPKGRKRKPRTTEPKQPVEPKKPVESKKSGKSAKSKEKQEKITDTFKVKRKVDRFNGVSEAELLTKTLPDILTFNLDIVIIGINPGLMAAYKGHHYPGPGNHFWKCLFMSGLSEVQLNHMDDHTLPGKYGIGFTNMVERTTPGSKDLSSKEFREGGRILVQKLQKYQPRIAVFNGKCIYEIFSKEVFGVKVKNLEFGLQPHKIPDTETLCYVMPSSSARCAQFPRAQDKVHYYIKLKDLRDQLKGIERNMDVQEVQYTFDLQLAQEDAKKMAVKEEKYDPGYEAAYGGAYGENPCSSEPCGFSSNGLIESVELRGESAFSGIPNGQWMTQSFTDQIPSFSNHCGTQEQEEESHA
Sequence of DNA-3-methyladenine glycosylase (Homo sapiens) (P29372 whole entry): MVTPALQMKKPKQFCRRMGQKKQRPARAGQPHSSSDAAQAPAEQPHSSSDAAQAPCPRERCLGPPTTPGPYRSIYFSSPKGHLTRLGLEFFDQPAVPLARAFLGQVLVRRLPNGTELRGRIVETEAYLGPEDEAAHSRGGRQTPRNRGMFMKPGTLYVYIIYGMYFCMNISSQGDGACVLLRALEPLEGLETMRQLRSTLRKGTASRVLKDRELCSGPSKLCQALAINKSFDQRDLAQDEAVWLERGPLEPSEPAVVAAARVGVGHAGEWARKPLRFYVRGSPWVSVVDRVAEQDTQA
Sequence of Endonuclease 8-like 1 (Homo sapiens) (Q96FI4 whole entry): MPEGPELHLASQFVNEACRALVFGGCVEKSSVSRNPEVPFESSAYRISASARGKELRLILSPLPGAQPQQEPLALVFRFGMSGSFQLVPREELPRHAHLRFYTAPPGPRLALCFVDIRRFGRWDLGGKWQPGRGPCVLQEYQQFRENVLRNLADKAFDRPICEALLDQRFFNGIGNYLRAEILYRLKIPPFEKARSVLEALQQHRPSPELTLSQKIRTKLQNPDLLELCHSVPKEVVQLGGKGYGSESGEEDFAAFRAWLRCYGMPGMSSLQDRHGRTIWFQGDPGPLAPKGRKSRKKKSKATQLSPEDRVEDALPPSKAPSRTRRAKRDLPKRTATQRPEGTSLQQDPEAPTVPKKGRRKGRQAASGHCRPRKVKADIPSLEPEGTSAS

Row | Compound | inhibition [1] [%] | inhibition [2] [%] | inhibition [3] [%] | inhibition [4] [%] | inhibition [5] [%] | inhibition [6] [%] | inhibition [7] [%] | inhibition [8] [%] | inhibition [9] [%]
1 | CC(C)(C(=O)O)c1ccc(C(O)CCCN2CCC(C(O)(c3ccccc3)c3ccccc3)CC2)cc1 (stereo unspecified) | -4.6 | -0.107 | -7.32 | 8 | 2.66 | -9.14 | -3.57 | 8.16 | -8.82
2 | C[C@@H](OC[C@@]1(c2ccccc2)CC[C@]2(CCC(=O)N2)CN1)c1cc(C(F)(F)F)cc(C(F)(F)F)c1 | -7.57 | 10.9 | -1.98 | 6.75 | -6.14 | -0.784 | -1.58 | 9.1 | -7.13
3 | CN1CCC(C(=O)c2cccc(NC(=O)c3c(F)cc(F)cc3F)n2)CC1 | 2.3 | 9.62 | 4.54 | -1.73 | -6.14 | -2.69 | -9.63 | 19.6 | -8.11
4 | NCCc1ccc(O)c(O)c1 | -0.746 | 17.9 | 2.32 | -3.23 | 21 | -1.68 | -4.83 | 8.49 | -7.47
5 | CC[S+]([O-])c1nc(-c2cccc(OCc3ccccc3)c2)cc(C(F)(F)F)n1 (stereo unspecified) | -6.11 | -4.2 | 5.43 | 10.8 | -3.94 | 6.41 | 4.67 | 4.54 | -7.73
6 | O=c1ccn([C@@H]2O[C@H](COP(=O)(O)OP(=O)(O)OP(=O)(O)OP(=O)(O)OC[C@H]3O[C@@H](n4ccc(=O)[nH]c4=O)[C@H](O)[C@@H]3O)[C@@H](O)[C@H]2O)c(=O)[nH]1 | 0.18 | -6.25 | 3.21 | -3.48 | 20.2 | -1.8 | – | 3.7 | –
7 | CC(C)NCC(O)c1ccc(N)c(C#N)c1 (stereo unspecified) | 0.373 | 4.24 | -4.21 | -8.72 | 12.9 | -2.67 | -9.04 | -4.14 | –
8 | Cc1ccccc1-c1cc(N2CCN(C)CC2)ncc1N(C)C(=O)C(C)(C)c1cc(C(F)(F)F)cc(C(F)(F)F)c1 | -7.15 | -1.13 | 0.537 | 1.76 | 21.7 | -7.29 | – | -5.37 | –
9 | CCC(=O)OCC(=O)[C@@]1(OC(=O)CC)[C@@H](C)C[C@H]2[C@@H]3CCC4=CC(=O)C=C[C@]4(C)[C@@]3(Cl)[C@@H](O)C[C@@]21C | 2.96 | 11.3 | 7.21 | 7 | 22.4 | -5.93 | – | -4.42 | –
10 | Cc1ccc(O)c([C@H](CCN(C(C)C)C(C)C)c2ccccc2)c1 | -5.07 | 8.6 | 5.28 | 2.01 | -3.21 | -3.4 | – | 2.93 | –
11 | Cc1ccc(S(=O)(=O)Nc2ccc(-n3nc(C(F)(F)F)cc3C(F)(F)F)cc2)cc1 | 20 | -4.85 | 3.57 | 5 | 16.2 | 21.7 | 19.1 | – | -1.93
12 | C[C@@H](NCCc1ccc(O)cc1)[C@@H](O)c1ccc(O)cc1 (relative stereo) | -3.37 | 11.7 | -5.25 | 6.25 | 17.3 | -4.18 | – | 5 | –
